Measurements reported in patent US12465604B2 (priority 2015, dated 2025).
Marks after values point to notes of the source that are not given here.

Columns and labels:
[1] = system: HIV-based vector integration sites in SupT1 cells; experiment: Integration site distribution of HIV-based vector near mapped genomic features; format: cell-based
[2] = system: OGH reporter virus in activated primary CD4+ T-cells; details: 3 days post infection, trend
Text: Peripheral Blood Mononuclear cells (PBMCs) were purified and CD4+ T-cells selectively enriched using Bi-specific MAb CD3.8 (AIDS reagents) for 5 days and infected with the OGH reporter virus. HIV infection was monitored 3 days post infection using flow cytometry analysis (FIG. 4).
Human PBMCs were purified, selectively enriched for CD4+ T cells using Bi-specific MAb CD3.8 and infected with the OGH reporter virus, in the presence or absence of LEDGINs (FIG. 7a,b).
Human peripheral blood mononuclear cells (PBMCs), obtained from the Red Cross Blood transfusion Center (Mechelen, Belgium) according to approved bioethical guidelines of our institute (S57175-IRB00002047), were purified from fresh buffy coats using lymphoprep density gradient centrifugation (Stem cell technologies). The CD4+ T cells were selectively enriched using Bi-specific MAb CD3.8 (0.5 μg/mL, AIDS reagents) for 5 days. Cells were cultured in RPMI 1640, 15% v/v FBS, 0.1% v/v Gentamicin, 100 U/ml IL-2 (Peprotech) (T-cell medium, TCM). Enriched total CD4+ primary T cells were infected with single round reporter virus for 2 h at 37° C., washed twice in TCM and reseeded in medium containing different concentrations of LEDGIN CX014442. HIV infection was monitored 48 h post infection using flow cytometry analysis.

[3] = system: HIV-OGH double reporter virus in SupT1 cells; experiment: Reactivation with TNFα, SupT1 cells infected with HIV-OGH double reporter virus; format: cell-based, HIV-1; details: SupT1, 50 μM
Experimental: To corroborate these findings SupT1 cells were infected with the HIV-OGH double reporter virus under different LEDGIN (CX014442) concentrations. SupT1 cells were infected and reactivated under conditions similar to the experiment with HIV tCD34 (FIGS. 2 and 5). Data are represented in FIG. 6. Two different virus dilutions are depicted in panel A and B. In both graphs the percentage eGFP+, mKO2+ cells and overall % mKO2 positive cells is plotted after stimulation with DMSO or TNFα for 24 h. The dashed lines show an increase in percentage of eGFP+, mKO2+ cells after stimulation with TNFα compared to DMSO, while the overall percentage of mKO2 positive cells remains constant. LEDGIN treatment reduces the reactivation of eGFP+, mKO2+ cells in a concentration-dependent manner, with 50 μM of CX014442 reducing reactivation to only 1.5-2 fold (FIG. 6C).
11 days post infection the infected cells were reactivated from latency using TNFalpha (10 ng/mL, Immunosource), SAHA (0.3 to 3 μM, AIDS reagents), prostratin (5 μM, AIDS reagents) or PMA (0.3 μM, AIDS reagents) 24 hours prior to analysis by flow cytometry. Time courses and drug concentrations are indicated in the individual experiments. LEDGINs were synthesized by the Cistim/CD3-facility (courtesy of Dr. A. Marchand).

[4] = system: single-round HIV-based lentiviral vector in SupT1 cells; experiment: Transduction efficiency of single-round HIV-based lentiviral vector (eGFP flow cytometry); format: cell-based; details: dilution series, data not shown
Text: In a next step we employed the recently developed LEDGINs, small molecules that inhibit LEDGF/p75-IN interaction and inhibit integration of HIV provirus (Christ et al., 2010, above) to investigate the impact of LEDGIN treatment on the HIV reservoir in cell culture. SupT1 cells were transduced with a single-round HIV-based lentiviral vector expressing the enhanced Green Fluorescent Protein (eGFP) reporter protein and treated with a dilution series of LEDGIN CX014442 (Christ et al 2012, above). […] In a first step, we determined integration site distribution of HIV-based viral vector integration sites (Gijsbers et al., 2009; Marshall et al., 2007). The number of integration sites is indicated for each data set (Table 2). First, we analysed lentiviral integration relative to a set of genomic features.

HIV-1 = experiment: 'late' IC50 stated in legend of FIG. 8; format: cell-based; details: Human immunodeficiency virus 1
[5] = system: HIV-based vector integration sites in SupT1 cells; experiment: Integration frequency near safe harbor criteria; format: cell-based
[6] = system: HIV OGH double reporter virus in SupT1 cells; format: cell-based, HIV-1; details: SupT1, 3 days post infection, increasing concentrations
[7] = system: HIV NL4-3.tCD34.R-.E- in SupT1 cells; experiment: microbe, parasite or virus in culture; format: cell-based; details: Human immunodeficiency virus 1, NL43, SUP-T1, read-out: inhibition of reactivation from latency
[8] = system: NL4.3 virus in primary CD4+ T cells
Text: Next we evaluated the multimodal effect of LEDGIN treatment on integration, assembly and reactivation in a multiple round reactivation model using WT HIV in resting CD4+ T-cells in order to model the in vivo situation. PHA/IL-2 activated primary (resting) CD4+ T cells were infected with NL4.3 virus in the presence of submicromolar concentrations of LEDGINs. At day four post infection (p.i.) LEDGINs were removed and cells were reseeded in the presence of PMA and PHA. Virus production upon reactivation was measured at day 7 p.i. by p24 ELISA.
Resting CD4+ T cells were purified using a custom-made EasySep negative selection kit (Stem Cell Technologies; 19052 cocktail, with the addition of CD25, CD69, and HLA-DR antibodies (catalogue number 19309VK)). […] Four days post-infection cells were washed twice using PBS and some cells were harvested for quantification of integrated proviral DNA using real time PCR (nested Alu-LTR PCR, (Butler et al., 2001; Lewin et al., 2008) normalized for input DNA by qPCR for the CCR5 gene as previously described (Zhang et al., 1999). Other cells were reseeded in the presence of 10 nM PMA (Sigma-Aldrich) together with 10 μg/mL PHA (Sigma-Aldrich) or left untreated. PHA activated feeder peripheral blood mononuclear cells (PBMCs) were added 24 h after the activating stimulus to amplify virus replication and enhance detection of the infection (Saleh et al., 2011). […]

[9] = system: NL4-3.tCD34.R-.E-/VSV-G latent provirus in Nalm LEDGF/p75 KO (−/−) cells; format: cell-based, HIV
[10] = system: NL4-3.tCD34.R-.E-/VSV-G latent provirus in Nalm wt (+/c) cells; format: cell-based, HIV
[11] = compound concentration 0.78125 μM
[12] = compound concentration 1.5625 μM
[13] = compound concentration 3.125 μM

CCCC(C(=O)O)c1c(C)nc2ccc(Cl)cc2c1-c1ccccc1 (centres unmarked) [CX014442, 2-(6-chloro-2-methyl-4-phenylquinolin-3-yl)pentanoic acid]
% CpG within 2 kb ([1]; compound concentration 0.54 μM): 2.33%
% CpG within 4 kb ([1]; compound concentration 0.54 μM): 5.83%
% DHS within 2 kb ([1]; compound concentration 0.54 μM): 24.07%
% DHS within 4 kb ([1]; compound concentration 0.54 μM): 39.94%
% TSS within 2 kb ([1]; compound concentration 0.54 μM): 2.00%
% TSS within 4 kb ([1]; compound concentration 0.54 μM): 5.92%
in RefGene ([1]; compound concentration 0.54 μM): 70.58%
% CpG within 2 kb ([1]; compound concentration 1.5 μM): 2.37%
% CpG within 4 kb ([1]; compound concentration 1.5 μM): 5.79%
% DHS within 2 kb ([1]; compound concentration 1.5 μM): 20.94%
% DHS within 4 kb ([1]; compound concentration 1.5 μM): 37.18%
% TSS within 2 kb ([1]; compound concentration 1.5 μM): 2.41%
% TSS within 4 kb ([1]; compound concentration 1.5 μM): 5.88%
in RefGene ([1]; compound concentration 1.5 μM): 70.37%
% CpG within 2 kb ([1]; compound concentration 3 μM): 1.73%
% CpG within 4 kb ([1]; compound concentration 3 μM): 5.39%
% DHS within 2 kb ([1]; compound concentration 3 μM): 21.49%
% DHS within 4 kb ([1]; compound concentration 3 μM): 37.55%
% TSS within 2 kb ([1]; compound concentration 3 μM): 1.97%
% TSS within 4 kb ([1]; compound concentration 3 μM): 5.59%
in RefGene ([1]; compound concentration 3 μM): 66.60%
% CpG within 2 kb ([1]; compound concentration 6 μM): 2.97%
% CpG within 4 kb ([1]; compound concentration 6 μM): 6.39%
% DHS within 2 kb ([1]; compound concentration 6 μM): 21.78%
% DHS within 4 kb ([1]; compound concentration 6 μM): 37.12%
% TSS within 2 kb ([1]; compound concentration 6 μM): 3.03%
% TSS within 4 kb ([1]; compound concentration 6 μM): 6.45%
in RefGene ([1]; compound concentration 6 μM): 65.23** %
% CpG within 2 kb ([1]; compound concentration 12 μM): 3.39%
% CpG within 4 kb ([1]; compound concentration 12 μM): 7.35%
% DHS within 2 kb ([1]; compound concentration 12 μM): 23.6%
% DHS within 4 kb ([1]; compound concentration 12 μM): 38.57%
% TSS within 2 kb ([1]; compound concentration 12 μM): 3.96** %
% TSS within 4 kb ([1]; compound concentration 12 μM): 7.58%
in RefGene ([1]; compound concentration 12 μM): 61.88*** %
% CpG within 2 kb ([1]; compound concentration 25 μM): 4.97** %
% CpG within 4 kb ([1]; compound concentration 25 μM): 10.26** %
% DHS within 2 kb ([1]; compound concentration 25 μM): 22.19%
% DHS within 4 kb ([1]; compound concentration 25 μM): 40.07%
% TSS within 2 kb ([1]; compound concentration 25 μM): 4.30** %
% TSS within 4 kb ([1]; compound concentration 25 μM): 8.94%
in RefGene ([1]; compound concentration 25 μM): 60.93*** %
% CpG within 2 kb ([1]; compound concentration 50 μM): 5.50%
% CpG within 4 kb ([1]; compound concentration 50 μM): 11.72*** %
% DHS within 2 kb ([1]; compound concentration 50 μM): 26.08%
% DHS within 4 kb ([1]; compound concentration 50 μM): 40.67%
% TSS within 2 kb ([1]; compound concentration 50 μM): 6.94%
% TSS within 4 kb ([1]; compound concentration 50 μM): 12.68*** %
in RefGene ([1]; compound concentration 50 μM): 54.55%
epigenetic preference of integration for transcriptionally active regions ([1]; histone marks, data not shown): inverted in a dose dependent manner
concentration at which a significant difference compared to wt in global integration preferences was reached ([1]; shift out of transcriptionally active regions): above 12 μM
% latently infected cells [2]: increased
reactivation of eGFP+, mKO2+ cells after TNFα relative to DMSO [3]: 1.5-2 fold
% eGFP positive cells (transduction efficiency) [4]: dose-dependent decrease
IC50 (HIV-1): 60 nM
% in UCR [5, 11]: 6.36%
% in transcript. Units [5, 11]: 74.95%
% within 50 kb of TSS [5, 11]: 31.13%
% within 300 kb of miRNAs [5, 11]: 25.54%
% within 300 kb of onco [5, 11]: 38.15%
Total % safe [5, 11]: 11.14%
% in UCR [5, 12]: 7.24%
% in transcript. Units [5, 12]: 75.11%
% within 50 kb of TSS [5, 12]: 29.28%
% within 300 kb of miRNAs [5, 12]: 22.52%
% within 300 kb of onco [5, 12]: 35.47%
Total % safe [5, 12]: 10.36%
% in UCR [5, 13]: 7.77%
% in transcript. Units [5, 13]: 71.91%
% within 50 kb of TSS [5, 13]: 28.57%
% within 300 kb of miRNAs [5, 13]: 23.34%
% within 300 kb of onco [5, 13]: 35.45%
Total % safe [5, 13]: 11.31%
% in UCR ([5]; compound concentration 6.25 μM): 6.03%
% in transcript. Units ([5]; compound concentration 6.25 μM): 70.48%
% within 50 kb of TSS ([5]; compound concentration 6.25 μM): 29.46%
% within 300 kb of miRNAs ([5]; compound concentration 6.25 μM): 21.76%
% within 300 kb of onco ([5]; compound concentration 6.25 μM): 33.03%
Total % safe ([5]; compound concentration 6.25 μM): 13.32%
% in UCR ([5]; compound concentration 12.5 μM): 9.39%
% in transcript. Units ([5]; compound concentration 12.5 μM): 67.42%
% within 50 kb of TSS ([5]; compound concentration 12.5 μM): 31.33%
% within 300 kb of miRNAs ([5]; compound concentration 12.5 μM): 24.89%
% within 300 kb of onco ([5]; compound concentration 12.5 μM): 33.03%
Total % safe ([5]; compound concentration 12.5 μM): 13.24%
% in UCR ([5]; compound concentration 25 μM): 6.95%
% in transcript. Units ([5]; compound concentration 25 μM): 66.06%
% within 50 kb of TSS ([5]; compound concentration 25 μM): 29.80%
% within 300 kb of miRNAs ([5]; compound concentration 25 μM): 21.52%
% within 300 kb of onco ([5]; compound concentration 25 μM): 35.26%
Total % safe ([5]; compound concentration 25 μM): 14.57%
% in UCR ([5]; compound concentration 50 μM): 5.98%
% in transcript. Units ([5]; compound concentration 50 μM): 59.57%
% within 50 kb of TSS ([5]; compound concentration 50 μM): 32.54%
% within 300 kb of miRNAs ([5]; compound concentration 50 μM): 22.25%
% within 300 kb of onco ([5]; compound concentration 50 μM): 35.65%
Total % safe ([5]; compound concentration 50 μM): 16.51%
% eGFP+, mKO2+ cells [6]: dose dependent decrease
overall % mKO2 positive cells [6]: dose dependent decrease
EC50 [7]: 7.24 µM
number of proviral DNA copies ([8]; 4 days p.i., submicromolar concentrations): reduced
p24 production upon reactivation with PMA and PHA ([8]; day 7 p.i., average of two donors): reduced

O=C(CCCCCCC(=O)Nc1ccccc1)NO [SAHA, Suberoylanilide Hydroxamic acid]
reactivation of tCD34 expression [9]: 2 fold
reactivation of tCD34 expression [10]: 3- to 4 fold
